Data taken from patent publication US7781423B2, “Compounds to promote regeneration of bone marrow” (priority 2007, dated 2010).

How the values were obtained:
[1] = test system: lethally irradiated mice that received bone marrow transplantation; test: Blood profile after bone marrow transplantation following lethal irradiation; format: in vivo, C57B1 mice; conditions: for Platelets / RBC / WBC: CCompound1 4.5 mg per kg i.p. daily, day -3 to day +3
Protocol: Twelve week old female C57B1 mice were used for the experiments. Each drug was administered intraperitoneally once a day for 5 consecutive days. In the second, third, fourth and fifth groups, mice were administered 120 mg/kg of cyclophosphamide (CP). In a third group, mice were also administered 4.5 mg/kg of CCompound1. In a fourth group, mice were also administered 4.5 mg/kg of CCompound3. In a fifth group, mice were also administered 2.0 mg/kg of CCompound26. In the first group, mice received no treatment. Each group included 5 animals. After 3 hours of the last treatments (on day 5), blood samples were collected from the ocular venous plexus of ether-anesthetized mice by retro-orbital venipuncture in heparanized tubes. Complete cell counts (RBC, red blood cell; WBC, white blood cell; PTL, platelet) were determined with a Sysmex F-800 hematology analyzer (To a Medical Electronics Co. LTD, Kobe, Japan). All data shown in Table 2 are the average of 5 independent determinations.
In this experiment the goal was to determine if CCompound1 can enhance expansion of transplanted bone marrow cells infused after applying a lethal dose of whole body irradiation (which reduces the number of bone marrow cells by more than 90%). C57B1 female mice (10-14 weeks old) were subjected to 900 cGy whole body irradiation from a ^137Cesium source which was followed within 6 hours by infusion of one million donor nucleated bone marrow cells by tail vein injection. Starting 3 days before irradiation, animals received daily 4.5 mg per kg of CCompound1 via intraperitoneal injection; this treatment also was provided on day 0 and once daily for the subsequent 3 days after irradiation. In another group, mice were injected only with physiological saline.
Bone marrow cells were collected on day 0 from non-irradiated animals as well as on days 6, 14, 28 and 42 after irradiation and bone marrow transplantation. Nucleated bone marrow cells were quantified and CFU-GM assay was performed as described in Example 3 while blood profiling was performed as described in Example 1. For each group, on the indicated days bone marrow and blood samples were collected from 3 animals. Each value presented in Table 5 and Table 6 represents the mean±st. dev. of 3 samples (derived from 3 animals).

[2] = test system: human bone marrow-derived mesenchymal stem cells; test: Proliferation of mesenchymal stem cells in the presence of 2% serum (viable cell number); format: cell-based; conditions: 10 μM or 50 μM
Protocol: Bone marrow aspirates were taken from normal adult donors after an informed consent was signed. Bone marrow mesenchymal stem cells were prepared by a widely used technique as described earlier by others. Pittenger, M. F., Mackay, A. M., Beck, S. C., Jaiswal, R. K., Douglas, R., Mosca, J. D., Moorman, M. A., Simonetti, D. W., Craig, S. and Marshak, D. R., “Multilineage potential of adult human mesenchymal stem cells,” Science, 284, 143-147 (1999). […] When cells grew to about 80% confluence, they were suspended and harvested by incubating with a ready-made solution containing 0.25% trypsin and 1 mM EDTA (Sigma-Aldrich, St. Louis, Mo.) for 5 minutes at 37° C.; this cell suspension is designated as passage 1. […]
The total numbers of nucleated and viable cells were determined with a hemocytometer, using Turck's solution and trypan blue stain, respectively. […]
In the experiments reported in Table 7 and Table 8, human bone marrow-derived mesenchymal stem cells were split at 1:3 and then incubated for 24 hours in 10% fetal calf serum-containing medium to about 30-35% confluence. […] The data are expressed as mean values±std. dev. of 3 determinations.

[3] = test system: healthy mice; test: Toxicity in healthy mice; format: in vivo; conditions: for well tolerated maximal dose: mice weighing about 25 g
Protocol: Accordingly, a well tolerated maximal dose for CCompound1 or CCompound3 in mice (weighing about 25 g) is […] which corresponds to a dose of 4.6 mg/kg. Therapeutically effective concentrations of CC compounds in humans will exert significant promoting effects on bone marrow regeneration without causing toxicity in other normal healthy tissues.

[4] = after bone marrow transplantation
[5] = day 6 after 900 cGy irradiation and bone marrow transplantation
[6] = day 14 after 900 cGy irradiation and bone marrow transplantation
[7] = day 28 after 900 cGy irradiation and bone marrow transplantation
[8] = day 42 after 900 cGy irradiation and bone marrow transplantation
[9] = single 450 μmole (about 4.6 mg/kg) or daily 400 μmole for 5 consecutive days

How did the “time to recover platelet count similar to about 100,000 per 1 μl from transplanted bone marrow stem cells” value [1, 4] turn out when `Cc1c(OCC(O)C[N+](C)(C)C)cc2c(=O)c3ccccc3sc2c1C.[Cl-]` (centres unmarked) [CCcompound1, [3-(3,4-Dimethyl-9-oxo-9H-thioxanthen-2-yloxy)-2-hydroxypropyl]trimethyl-ammonium chloride] was run?
Its value is “less than 6 days”.

And the “time to recover white blood cell count similar to 2,500 per 1 μl from transplanted bone marrow stem cells” value [1, 4]?
Its value is 9 to 11 days.

What about the “time to about 50% recovery of white blood cells” value ([1]; after lethal irradiation and bone marrow transplantation) of the same molecule?
Its value is “about 14 days”.

What about the Platelets [1, 5] of the same molecule?
The Platelets was 243 ± 19 ×10^3/mm^3.

What about the RBC [1, 5] of the same molecule?
Its RBC is 4.8 ± 1.2 ×10^6/mm^3.

And the WBC [1, 5]?
Its WBC is 1.6 ± 0.3 ×10^3/mm^3.

And the Platelets [1, 6]?
Its Platelets is 438 ± 112 ×10^3/mm^3.

What about the RBC [1, 6] of the same molecule?
The RBC was 9.1 ± 1.1 ×10^6/mm^3.

And the WBC [1, 6]?
The WBC was 3.3 ± 0.4 ×10^3/mm^3.

And the Platelets [1, 7]?
The Platelets was 716 ± 138 ×10^3/mm^3.

And the RBC [1, 7]?
The RBC was 10.9 ± 1.3 ×10^6/mm^3.

And the WBC [1, 7]?
Its WBC is 5.2 ± 0.8 ×10^3/mm^3.

What about the Platelets [1, 8] of the same molecule?
The Platelets was 776 ± 112 ×10^3/mm^3.

And the RBC [1, 8]?
The RBC was 11.0 ± 0.7 ×10^6/mm^3.

And the WBC [1, 8]?
Its WBC is 6.6 ± 0.4 ×10^3/mm^3.

What about the “effect on the proliferation of stem cells” value [2] of the same molecule?
The value was “no direct stimulatory effect”.

What about the “well tolerated maximal dose” value [3] of the same molecule?
Its value is 450 μmole/animal.

And the “well tolerated maximal dose” value ([3]; corresponds to 450 μmole/animal)?
Its value is 4.6 mg/kg.

And the “change in the composition of various blood constituents” value [3, 9]?
The value was “did not cause any significant change”.

What about the “pathological alterations in the liver, brain, kidney, heart, spleen, intestine, and lung” value [3, 9] of the same molecule?
Its value is “did not induce significant pathological alterations”.
